According to patent publication US9096591B2, “Tetracyclic compounds” (Medivation Technologies, Inc., priority 2007, dated 2015):
Read-outs that look alike come from different tables or passages of the source.

What was measured:
[1] = biological target: T1, human recombinant histamine H1 receptor (Homo sapiens, UniProt P35367); assay: Histamine H1 radioligand binding ([3H]Pyrilamine)
T1 construct: expressed in transfected cells; host or cells: CHO cells
Outline: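 CHO-expressed receptor in modified Tris-HCl buffer (50 mM, pH 7.4; 2 mM MgCl2, 100 mM NaCl, 250 mM sucrose); bound ligand measured after filtration and washing.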

[2] = biological target: T2, human recombinant adrenergic α2A receptor (Homo sapiens, UniProt P08913); assay: Adrenergic α2A radioligand binding ([3H]MK-912); set-up: Inhibition of ligand binding, Adren. alpha2A: concentration or dose not given beside the values; conditions: percent inhibition of specific binding
T2 construct: expressed in transfected cells; host or cells: insect Sf9 cells
T2 sequence (P08913 1-465): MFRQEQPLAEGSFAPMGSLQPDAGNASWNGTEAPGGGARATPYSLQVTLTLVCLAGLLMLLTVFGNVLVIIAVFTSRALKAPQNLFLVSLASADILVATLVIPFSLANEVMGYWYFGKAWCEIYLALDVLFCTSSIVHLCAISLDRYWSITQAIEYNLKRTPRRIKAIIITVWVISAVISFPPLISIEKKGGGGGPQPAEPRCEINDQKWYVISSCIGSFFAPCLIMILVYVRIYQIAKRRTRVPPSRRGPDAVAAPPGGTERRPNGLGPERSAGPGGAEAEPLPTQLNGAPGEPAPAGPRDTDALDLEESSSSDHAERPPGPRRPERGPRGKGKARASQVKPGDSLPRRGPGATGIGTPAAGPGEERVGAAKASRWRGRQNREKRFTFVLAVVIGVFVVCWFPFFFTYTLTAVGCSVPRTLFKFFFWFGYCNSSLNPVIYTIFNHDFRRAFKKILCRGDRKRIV
Outline: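 Membranes from Sf9 cells expressing the receptor were incubated with 1 nM [3H]MK-912 for 60 minutes at 25° C in 50 mM Tris-HCl pH 7.4, 12.5 mM MgCl2, 2 mM EDTA. 10 μM WB-4101 defined non-specific binding. Values are percent inhibition of specific bound radioactivity after filtration.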

[3] = biological target: T3, human recombinant serotonin (5-Hydroxytryptamine) 5-HT2A receptor (Homo sapiens, UniProt P28223); assay: Serotonin 5-HT2A radioligand binding ([3H]Ketanserin); conditions: for Inhibition of ligand binding, Ser. 5-HT2A: percent inhibition of specific binding
T3 construct: expressed in transfected cells; host or cells: CHO-K1 cells
T3 sequence (P28223 whole entry): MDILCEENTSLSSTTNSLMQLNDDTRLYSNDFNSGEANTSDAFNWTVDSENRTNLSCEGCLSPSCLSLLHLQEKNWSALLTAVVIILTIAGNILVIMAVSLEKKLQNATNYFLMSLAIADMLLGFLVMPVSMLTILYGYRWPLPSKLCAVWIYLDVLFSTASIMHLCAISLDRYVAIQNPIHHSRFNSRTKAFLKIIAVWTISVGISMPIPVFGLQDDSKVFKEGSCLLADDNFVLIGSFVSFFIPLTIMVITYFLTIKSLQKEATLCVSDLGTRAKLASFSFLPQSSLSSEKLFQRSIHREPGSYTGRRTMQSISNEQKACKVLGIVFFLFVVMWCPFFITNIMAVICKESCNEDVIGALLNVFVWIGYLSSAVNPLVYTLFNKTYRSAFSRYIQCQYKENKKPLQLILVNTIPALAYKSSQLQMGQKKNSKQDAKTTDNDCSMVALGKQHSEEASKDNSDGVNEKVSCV
Experimental: (§1) Compounds of the invention were incubated with 0.5 nM [^3H]Ketanserin for 60 minutes at 25° C. Non-specific binding was estimated in the presence of 1 μM Mianserin. Receptor proteins were filtered and washed, the filters were then counted to determine [^3H]Ketanserin specifically bound. […] Biochemical assay results are presented as the percent inhibition of specific binding in Table 6.

[4] = biological target: T4, human recombinant serotonin (5-Hydroxytryptamine) 5-HT2C receptor (Homo sapiens, UniProt P28335); assay: Serotonin 5-HT2C radioligand binding ([3H]Mesulergine); set-up: Inhibition of ligand binding, Ser. 5-HT2C: concentration or dose not given beside the values; conditions: percent inhibition of specific binding
T4 construct: expressed in transfected cells; host or cells: CHO-K1 cells
T4 sequence (P28335 33-458): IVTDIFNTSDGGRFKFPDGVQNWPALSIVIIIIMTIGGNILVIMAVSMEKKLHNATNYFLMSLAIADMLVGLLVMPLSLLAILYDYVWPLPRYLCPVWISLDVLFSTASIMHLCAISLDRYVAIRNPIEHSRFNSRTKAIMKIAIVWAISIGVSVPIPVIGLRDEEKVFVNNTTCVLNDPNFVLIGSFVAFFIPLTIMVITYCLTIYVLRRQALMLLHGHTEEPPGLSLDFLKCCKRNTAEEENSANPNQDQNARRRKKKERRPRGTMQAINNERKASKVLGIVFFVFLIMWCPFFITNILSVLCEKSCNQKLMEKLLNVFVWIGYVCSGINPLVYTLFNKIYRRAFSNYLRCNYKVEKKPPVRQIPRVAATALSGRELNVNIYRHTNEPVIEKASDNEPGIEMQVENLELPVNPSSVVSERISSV
Experimental: as §1, with “1” for “0.5”, “[^3H]Mesulergine” for “[^3H]Ketanserin”

[5] = biological target: T5, human recombinant serotonin (5-Hydroxytryptamine) 5-HT6 receptor (Homo sapiens, UniProt P50406); assay: Serotonin 5-HT6 radioligand binding ([3H]LSD); set-up: Inhibition of ligand binding, Ser. 5-HT6: concentration or dose not given beside the values; conditions: percent inhibition of specific binding
T5 construct: expressed in transfected cells; host or cells: human HeLa cells
T5 sequence (P50406 whole entry): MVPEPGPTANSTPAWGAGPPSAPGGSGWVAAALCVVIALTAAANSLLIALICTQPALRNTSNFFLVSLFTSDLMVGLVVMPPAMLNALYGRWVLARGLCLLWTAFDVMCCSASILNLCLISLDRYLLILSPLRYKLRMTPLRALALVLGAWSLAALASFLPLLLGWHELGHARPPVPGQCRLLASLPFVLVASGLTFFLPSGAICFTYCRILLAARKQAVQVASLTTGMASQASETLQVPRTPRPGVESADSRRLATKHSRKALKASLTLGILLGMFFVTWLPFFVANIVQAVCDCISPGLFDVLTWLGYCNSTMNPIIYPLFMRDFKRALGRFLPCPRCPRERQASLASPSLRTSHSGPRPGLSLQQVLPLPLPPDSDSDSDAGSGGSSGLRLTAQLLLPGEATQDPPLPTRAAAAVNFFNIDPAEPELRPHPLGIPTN
Text: Receptor proteins were filtered and washed, the filters were then counted to determine [3H]LSD specifically bound. […] Biochemical assay results are presented as the percent inhibition of specific binding in Table 6.

[6] = 1 μM compound, […] [3H]Pyrilamine, read-out: Histamine Binding H1, percent inhibition of specific binding
[7] = percent inhibition of specific binding, screened at 1 μM, read-out: Inhibition of ligand binding, Hist. H1

T1 sequence (P35367 whole entry): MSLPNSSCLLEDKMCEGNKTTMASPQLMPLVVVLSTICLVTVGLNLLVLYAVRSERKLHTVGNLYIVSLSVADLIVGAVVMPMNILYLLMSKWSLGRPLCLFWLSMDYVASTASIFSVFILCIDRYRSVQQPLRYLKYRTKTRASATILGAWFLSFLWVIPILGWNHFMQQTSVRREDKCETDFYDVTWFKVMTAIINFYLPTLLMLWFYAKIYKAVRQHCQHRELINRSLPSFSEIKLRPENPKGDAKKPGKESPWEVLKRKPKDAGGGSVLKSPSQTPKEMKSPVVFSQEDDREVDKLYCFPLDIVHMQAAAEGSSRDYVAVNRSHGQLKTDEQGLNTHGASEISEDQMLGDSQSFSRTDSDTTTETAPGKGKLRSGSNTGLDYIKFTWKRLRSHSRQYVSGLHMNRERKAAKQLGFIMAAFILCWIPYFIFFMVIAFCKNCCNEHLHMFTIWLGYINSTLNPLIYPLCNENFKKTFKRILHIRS

| SMILES | inhibition at 1 µM [1, 6] [%] | inhibition at 1 µM [1, 7] [%] | Inhibition of ligand binding, Adren. alpha2A [2] [%] | Inhibition of ligand binding, Ser. 5-HT2A [3] [%] | Inhibition of ligand binding, Ser. 5-HT2C [4] [%] | Inhibition of ligand binding, Ser. 5-HT6 [5] [%] | inhibition at 0.001 µM ([3]; read-out: Inhibition of ligand binding, Ser. 5-HT2A) [%] |
| --- | --- | --- | --- | --- | --- | --- | --- |
| Cc1ccc2c(c1)c1c(n2CCN2CCCC2)CCN(C)C1 [Compound 221, 2,3,4,5-tetrahydro-2,8-dimethyl-5-(2-(pyrrolidin-1-yl)ethyl)-1H-pyrido[4,3-b]indole] | 78 | 78 | 37 | 46 | 69 | 29 |  |
| Cc1ccc2c(c1)c1c(n2CCc2ccc(C)nc2)CCNC1 [Compound 230, 2,3,4,5-tetrahydro-8-methyl-5-(2-(6-methylpyridin-3-yl)ethyl)-1H-pyrido[4,3-b]indole] | 46 | 93 | 56 | 33 | 36 | 45 |  |
| Cc1ccc2c(c1)c1c(n2CCC(=O)N2CCC(N)CC2)CCN(C)C1 [Compound 231, 1-(4-aminopiperidin-1-yl)-3-(1,2,3,4-tetrahydro-2,8-dimethylpyrido[4,3-b]indol-5-yl)propan-1-one] | -11 | -11 | 29 | 5 | 49 | 3 |  |
| Cc1ccc2c(c1)c1c(n2CCc2ccc(C)nc2)C(Br)C(=O)N(C)C1 (stereo not drawn) [Compound 232, 4-bromo-1,2-dihydro-2,8-dimethyl-5-(2-(6-methylpyridin-3-yl)ethyl)-4H-pyrido[4,3-b]indol-3(5H)-one] | -6 | -6 | 2 | −10 | 2 | −7 |  |
| Cc1ccc2c(c1)c1c(n2CCCc2ccccn2)CCN(C)C1 [Compound 233, 2,3,4,5-tetrahydro-2,8-dimethyl-5-(3-(pyridin-2-yl)propyl)-1H-pyrido[4,3-b]indole] | 99 | 99 | 90 | 92 | 93 | 95 |  |
| COc1ccc(CCn2c3c(c4cc(C)ccc42)CN(C)CC3)cc1 [Compound 247] | 100 | 100 | 99 |  | 93 | 107 | 22 |
| Cc1ccc2c(c1)c1c(n2CCc2ccc(C(=O)O)nc2)CCN(C)C1 [Compound 255] | 71 | 71 | −8 | 1 | 11 | 2 |  |
| Cc1ccc2c(c1)c1c(n2CCc2ccc(CO)nc2)CCN(C)C1 [Compound 267] |  | 96 | 49 | 73 | 76 | 69 |  |
| Cc1ccc(CCn2c3c(c4cc(C(=O)O)ccc42)CNCC3)cn1 [Compound 274, 2,3,4,5-tetrahydro-5-(2-(6-methylpyridin-3-yl)ethyl)-1H-pyrido[4,3-b]indole-8-carboxylic acid] |  | 1 | 7 | 6 | −5 | −2 |  |
| CCOC(=O)c1ccc(CCn2c3c(c4cc(C)ccc42)CN(C)CC3)cn1 [Compound 275, ethyl 5-(2-(1,2,3,4-tetrahydro-2,8-dimethylpyrido[4,3-b]indol-5-yl)ethyl)pyridine-2-carboxylate] |  | 92 | 29 | 39 | 31 | 56 |  |
| CN1CCc2c(c3cc(Cl)ccc3n2CC(=O)N2CCS(=O)(=O)CC2)C1 [Compound 295] |  | -3 | 26 | 0 | −19 | −1 |  |
| CN1CCc2c(c3cc(Cl)ccc3n2CC(=O)N2CC[S+]([O-])CC2)C1 [Compound 296, 2-(8-Chloro-2-methyl-1,2,3,4-tetrahydro-pyrido[4,3-b]indol-5-yl)-1-(1-oxo-1l4-thiomorpholin-4-yl)-ethanone] |  | 36 | 1 | 11 | 2 | 3 |  |
| Cc1ccc2c(c1)c1c(n2CCc2cnc(C)cn2)CCN(C)C1 [Compound 322, 2,8-dimethyl-5-(2-(5-methylpyrazin-2-yl)ethyl)-2,3,4,5-tetrahydro-1H-pyrido[4,3-b]indole] |  | 89 | 44 | 64 | 69 | 75 |  |
| Cc1ccc2c(c1)c1c(n2CCc2cnc(C)nc2)CCN(C)C1 [Compound 323, 2,3,4,5-tetrahydro-2,8-dimethyl-5-(2-(2-methylpyrimidin-5-yl)ethyl)-1H-pyrido[4,3-b]indole] |  | 93 | 6 | 16 | 20 | 69 |  |
| CN1CCc2c(c3cc(Cl)ccc3n2CCCc2ccc(C(F)(F)F)nc2)C1 [Compound 324, 8-chloro-5-(3-(6-(trifluoromethyl)pyridin-3-yl)propyl)-2,3,4,5-tetrahydro-2-methyl-1H-pyrido[4,3-b]indole] |  | 101 | 60 | 86 | 57 | 93 |  |
| CC1CCN(C(=O)CCn2c3c(c4cc(Cl)ccc42)CN(C)CC3)CC1 [Compound 325, 3-(8-chloro-1,2,3,4-tetrahydro-2-methylpyrido[4,3-b]indol-5-yl)-1-(4-methylpiperidin-1-yl)propan-1-one] |  | 90 | 58 | 53 | 50 | 41 |  |
